From ChEMBL document CHEMBL5385853, “Design, synthesis, and biological evaluation of novel quinoline derivatives as small molecule mutant EGFR inhibitors targeting resistance in NSCLC: In vitro screening and ADME predictions” (Eur J Med Chem, 2023)
The source made the active and inactive calls. The rule behind the calls is not given here.

Key:
[1] = target: Epidermal growth factor receptor (Homo sapiens, UniProt P00533); experiment: Inhibition of EGFR (unknown origin)
[2] = tested on: HCC827; experiment: Anticancer activity against human HCC827 cells harboring EGFR E746_A750 del mutant assessed as reduction in cell viability measured after 72 hrs by MTT assay; type: functional, cell-based; conditions: HCC827, 72 h
[3] = tested on: A549; experiment: Anticancer activity against human A549 cells assessed as reduction in cell viability measured after 72 hrs by MTT assay; type: functional, cell-based; conditions: A549, 72 h
[4] = tested on: NCI-H1975; experiment: Anticancer activity against human NCI-H1975 cells harboring EGFR L858R/T790M mutant assessed as reduction in cell viability measured after 72 hrs by MTT assay; type: functional, cell-based; conditions: NCI-H1975, 72 h
[5] = tested on: A549; experiment: Anticancer activity against human A549 cells overexpressing wild type EGFR assessed as reduction in cell viability measured after 72 hrs by MTT assay; type: functional, cell-based; conditions: A549, 72 h
[6] = target: Epidermal growth factor receptor (Homo sapiens, UniProt P00533, L858R/T790M); experiment: Inhibition of EGFR L858R/T790M mutant (unknown origin) using poly (Glu,Tyr) as substrate incubated for 40 mins in presence of ATP by Kinase-Glo luminescent analysis
[7] = tested on: Epidermal growth factor receptor (Homo sapiens), P00533 [UNDEFINED MUTATION]; experiment: Inhibition of EGFR E746_A750 del mutant in human HCC827 cells assessed as inhibition of Akt phosphorylation at 0.01 to 1 uM by western blot analysis; type: cell-based; conditions: dose 0.01-1 µM
[8] = tested on: NSCLC; experiment: Induction of apoptosis in human NSCLC assessed as early apoptotic cells at IC50 measured after 24 to 48 hrs by AnnexinV-FITC/PI staining based flow cytometry (reference value: 2.1%); type: functional; conditions: time 24-48 hrs
[9] = Cytotoxicity against human BEAS-2B cells assessed as reduction in cell viability measured after 72 hrs by MTT assay; type: toxicity, cell-based
[10] = tested on: NSCLC; experiment: Induction of apoptosis in human NSCLC assessed as late apoptotic cells at IC50 measured after 24 to 48 hrs by AnnexinV-FITC/PI staining based flow cytometry (reference value: 1.1%); type: functional; conditions: time 24-48 hrs

Chain of Epidermal growth factor receptor (Homo sapiens, UniProt P00533, L858R/T790M) (P00533 25-1210 T790M/L858R limits assumed): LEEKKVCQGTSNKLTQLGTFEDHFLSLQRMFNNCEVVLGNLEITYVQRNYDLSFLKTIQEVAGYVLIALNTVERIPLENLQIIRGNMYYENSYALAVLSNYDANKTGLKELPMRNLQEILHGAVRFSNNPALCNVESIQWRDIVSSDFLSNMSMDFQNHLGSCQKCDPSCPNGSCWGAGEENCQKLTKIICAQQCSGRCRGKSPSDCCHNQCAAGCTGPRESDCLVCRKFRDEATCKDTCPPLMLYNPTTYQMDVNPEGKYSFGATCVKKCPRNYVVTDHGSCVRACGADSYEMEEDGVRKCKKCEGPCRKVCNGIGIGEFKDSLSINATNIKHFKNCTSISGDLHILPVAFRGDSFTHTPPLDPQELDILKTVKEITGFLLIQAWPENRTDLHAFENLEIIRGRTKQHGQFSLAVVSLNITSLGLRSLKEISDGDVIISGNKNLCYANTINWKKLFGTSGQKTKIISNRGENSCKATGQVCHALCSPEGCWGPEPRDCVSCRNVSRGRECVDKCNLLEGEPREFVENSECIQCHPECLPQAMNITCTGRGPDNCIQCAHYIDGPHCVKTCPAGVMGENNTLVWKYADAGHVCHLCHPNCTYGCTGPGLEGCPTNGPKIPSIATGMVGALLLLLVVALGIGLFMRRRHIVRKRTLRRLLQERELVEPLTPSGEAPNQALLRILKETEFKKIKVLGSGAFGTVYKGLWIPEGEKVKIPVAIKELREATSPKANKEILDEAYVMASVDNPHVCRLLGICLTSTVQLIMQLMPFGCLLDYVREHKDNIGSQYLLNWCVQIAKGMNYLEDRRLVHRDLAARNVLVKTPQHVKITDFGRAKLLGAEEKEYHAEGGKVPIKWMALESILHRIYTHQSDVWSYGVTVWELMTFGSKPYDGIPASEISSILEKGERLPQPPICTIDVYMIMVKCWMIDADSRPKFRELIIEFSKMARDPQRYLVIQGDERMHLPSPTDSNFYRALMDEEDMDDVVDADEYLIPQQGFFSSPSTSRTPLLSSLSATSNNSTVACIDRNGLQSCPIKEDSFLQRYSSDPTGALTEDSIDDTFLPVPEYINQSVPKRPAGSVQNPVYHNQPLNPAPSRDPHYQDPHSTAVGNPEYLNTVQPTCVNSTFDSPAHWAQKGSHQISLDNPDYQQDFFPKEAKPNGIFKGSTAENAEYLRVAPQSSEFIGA
Chain of Epidermal growth factor receptor (Homo sapiens, UniProt P00533) (P00533 whole entry): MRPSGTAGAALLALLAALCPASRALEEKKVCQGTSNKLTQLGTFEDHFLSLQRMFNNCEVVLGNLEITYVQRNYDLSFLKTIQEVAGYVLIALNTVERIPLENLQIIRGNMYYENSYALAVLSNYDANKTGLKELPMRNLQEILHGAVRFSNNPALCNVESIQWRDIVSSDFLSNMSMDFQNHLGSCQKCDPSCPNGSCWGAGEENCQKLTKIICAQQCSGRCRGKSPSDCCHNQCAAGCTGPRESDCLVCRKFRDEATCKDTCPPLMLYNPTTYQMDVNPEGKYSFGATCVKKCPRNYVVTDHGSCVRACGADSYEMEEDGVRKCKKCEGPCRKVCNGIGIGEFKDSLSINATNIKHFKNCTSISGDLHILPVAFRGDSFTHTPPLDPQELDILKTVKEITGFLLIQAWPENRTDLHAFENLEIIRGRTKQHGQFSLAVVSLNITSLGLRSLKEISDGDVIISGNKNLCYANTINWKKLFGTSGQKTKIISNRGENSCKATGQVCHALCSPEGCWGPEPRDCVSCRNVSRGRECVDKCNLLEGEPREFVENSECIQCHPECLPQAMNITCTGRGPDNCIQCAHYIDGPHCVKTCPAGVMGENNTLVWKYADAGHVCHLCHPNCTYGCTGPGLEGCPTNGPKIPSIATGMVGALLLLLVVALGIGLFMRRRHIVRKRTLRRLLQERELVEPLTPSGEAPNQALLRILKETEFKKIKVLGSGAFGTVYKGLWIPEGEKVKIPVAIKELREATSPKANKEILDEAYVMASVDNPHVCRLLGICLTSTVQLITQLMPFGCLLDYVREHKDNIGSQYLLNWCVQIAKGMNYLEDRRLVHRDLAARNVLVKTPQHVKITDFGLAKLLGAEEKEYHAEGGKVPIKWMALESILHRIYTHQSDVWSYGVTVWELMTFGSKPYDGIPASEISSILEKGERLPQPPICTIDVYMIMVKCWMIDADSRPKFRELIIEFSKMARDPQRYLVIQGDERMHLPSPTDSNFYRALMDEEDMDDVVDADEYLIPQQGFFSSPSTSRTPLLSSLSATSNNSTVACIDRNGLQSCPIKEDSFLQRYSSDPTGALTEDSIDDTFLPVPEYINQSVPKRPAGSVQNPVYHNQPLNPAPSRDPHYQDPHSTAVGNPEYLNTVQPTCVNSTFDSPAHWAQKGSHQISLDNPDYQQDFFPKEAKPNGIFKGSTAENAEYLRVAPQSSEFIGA
Chain of Epidermal growth factor receptor (Homo sapiens), P00533 [UNDEFINED MUTATION] (P00533 whole entry, looked up, stated change not applied): as the sequence (P00533 whole entry) above

SMILES	IC50 [1] [µM]	IC50 [2] [µM]	IC50 [3] [µM]	IC50 [4] [µM]	IC50 [5] [µM]	IC50 [6] [µM]	inhibition [7]	Activity [8] [%]	IC50 at 72 h [9] [µM]	Activity [10] [%]
N#Cc1c(-c2ccc3ncc(C(N)=O)c(Nc4cccc(Br)c4)c3c2)csc1N	0.49									
CCOC(=O)c1c(-n2ccnc2)nc2ccc(Br)cc2c1N1CCN(c2ccccc2NS(=O)(=O)c2ccc(C#N)cc2)CC1		0.33	9.11	4.12	5.82					
CCOC(=O)c1c(-n2ccnc2)nc2ccc(Br)cc2c1N1CCN(c2ccccc2NS(=O)(=O)c2ccc(I)cc2)CC1		0.29	9.18	2.88	5.6					
CCOC(=O)c1c(-n2ccnc2)nc2ccc(Br)cc2c1N1CCN(c2ccccc2NS(=O)(=O)c2ccc(S(C)(=O)=O)cc2)CC1		0.89	14.6	11.1	10.3					
CCOC(=O)c1c(-n2ccnc2)nc2ccc(Br)cc2c1N1CCN(c2ccccc2NS(=O)(=O)C2CC2)CC1		0.67	11.1	7.16	7.84					
CCCc1cc(C(=O)Nc2ccccc2N2CCN(c3c(C(=O)OCC)c(-n4ccnc4)nc4ccc(Br)cc34)CC2)n(C)n1		0.88	11.5	9.36	8.22					
CCOC(=O)c1c(-n2ccnc2)nc2ccc(Br)cc2c1N1CCNCC1		2.45	16.2	15.2	11.4					
CCOC(=O)c1c(-n2ccnc2)nc2ccc(Br)cc2c1N1CCN(C(=O)OC(C)(C)C)CC1		2.11	14.2	16	12.2					
COc1cc2ncc(C#N)c(Nc3cccc(Br)c3)c2cc1OC	0.0075									
CCOC(=O)c1c(-n2ccnc2)nc2ccc(Br)cc2c1N1CCN(c2ccccc2NS(=O)(=O)c2cccc(C#N)c2)CC1		0.38	9.22	4.3	5.99					
CCOC(=O)c1c(-n2ccnc2)nc2ccc(Br)cc2c1N1CCN(c2ccccc2NC(=O)c2cccc(OC)c2OC)CC1		0.52	11.2	6.14	8.73					
CCOC(=O)c1c(-n2ccnc2)nc2ccc(Br)cc2c1N1CCN(c2ccccc2NS(=O)(=O)c2ccc(C(C)(C)C)cc2)CC1		0.96	15.1	11.8	10.8					
CCOC(=O)c1c(-n2ccnc2)nc2ccc(Br)cc2c1N1CCN(c2ccccc2NS(=O)(=O)c2ccc(OC)cc2)CC1		0.38	10.2	4.8	6.11					
CCOC(=O)c1c(-n2ccnc2)nc2ccc(Br)cc2c1N1CCN(c2ccccc2N)CC1		0.97	16.8	13.1	11.5					

Continued, in another order:

IC50 [1] [µM]	IC50 [2] [µM]	IC50 [3] [µM]	IC50 [4] [µM]	IC50 [5] [µM]	IC50 [6] [µM]	inhibition [7]	SMILES	Activity [8] [%]	IC50 at 72 h [9] [µM]	Activity [10] [%]
	0.01	2.99	0.21	0.99	0.138	inactive	CCOC(=O)c1c(-n2ccnc2)nc2ccc(Br)cc2c1N1CCN(c2ccccc2NS(=O)(=O)c2ccc(C(F)(F)F)cc2)CC1	26.8	85.1	4.2
	0.22	8.22	2.86	5.02			CCOC(=O)c1c(-n2ccnc2)nc2ccc(Br)cc2c1N1CCN(c2ccccc2NS(=O)(=O)c2ccc(Br)cc2)CC1			
	0.22	8.36	2.86	5.64			CCOC(=O)c1c(-n2ccnc2)nc2ccc(Br)cc2c1N1CCN(c2ccccc2NS(=O)(=O)c2ccc(Cl)cc2)CC1			
	0.17	8.32	2.81	4.88			CCOC(=O)c1c(-n2ccnc2)nc2ccc(Br)cc2c1N1CCN(c2ccccc2NC(=O)c2ccccc2F)CC1			
	0.099	3.09	0.77	1.09	0.159		CCOC(=O)c1c(-n2ccnc2)nc2ccc(Br)cc2c1N1CCN(c2ccccc2NS(=O)(=O)c2ccc(F)c(F)c2)CC1		45.8	
	0.11	6.98	2.18	4.3			CCOC(=O)c1c(-n2ccnc2)nc2ccc(Br)cc2c1N1CCN(c2ccccc2NC(=O)c2cc(F)ccc2I)CC1			
	0.062	4.22	0.82	1.88	0.152		CCOC(=O)c1c(-n2ccnc2)nc2ccc(Br)cc2c1N1CCN(c2ccccc2NS(=O)(=O)c2ccc(F)cc2)CC1		86.5	
	0.28	10.1	4.43	6.09			CCOC(=O)c1c(-n2ccnc2)nc2ccc(Br)cc2c1N1CCN(c2ccccc2[N+](=O)[O-])CC1			
	0.16	8.58	2.82	4.92			CCOC(=O)c1c(-n2ccnc2)nc2ccc(Br)cc2c1N1CCN(c2ccccc2NC(=O)c2cccc(Br)c2)CC1			
	0.18	7.01	2.69	4.82			CCOC(=O)c1c(-n2ccnc2)nc2ccc(Br)cc2c1N1CCN(c2ccccc2NC(=O)c2cc(F)ccc2Br)CC1			
	0.05	4.87	0.86	2.41	0.144	inactive	CCOC(=O)c1c(-n2ccnc2)nc2ccc(Br)cc2c1N1CCN(c2ccccc2NS(=O)(=O)c2ccccc2F)CC1			
	0.1	11	0.11	7.94			CCOC(=O)c1c(-n2ccnc2)nc2ccc(Br)cc2c1N1CCN(c2ccccc2NC(=O)C2CC(=O)C2)CC1			
